Test results from patent US11214803B2, “Modulators of YAP1 expression” (Ionis Pharmaceuticals, Inc., priority 2019, dated 2022).
Strand notation (5' to 3'): a small letter for the sugar, then the base; units joined by * are phosphorothioate-linked, units joined directly phosphodiester-linked; [ ] holds rarer units or linkages, { } end groups; capitals alone tell only the bases. e = 2'-O-(2-methoxyethyl) (MOE); k = constrained ethyl (cEt); [5mC] = 5-methylcytosine; d = 2'-deoxy (DNA); m = 2'-O-methyl

Tested on: Yap1 mRNA
Assay: Antisense inhibition of human Yap1 in SNU-449 cells by modified oligonucleotides, single dose (Example 5, RTS36584)
Assay type: cell-based
Summary of the method: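 Each modified oligonucleotide is applied by free uptake to SNU-449 cultures at 2,000 nM, and total RNA is harvested around 48 h later. Yap1 transcript, quantified with the RTS36584 set and corrected for RIBOGREEN RNA content, is given as % UTC. Asterisks mark sequences overlapping the amplicon.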

[1] = Table 49, Yap1 mRNA level relative to untreated control, modified oligonucleotides targeting SEQ ID NO.: 1 and 2
[2] = Table 40 (separate experiment), SNU-449 cells, 10,000 cells per well, free uptake, 2,000 nM oligonucleotide, approx. 48 hours, RTS36584, normalized to RIBOGREEN, Yap1 mRNA relative to untreated control
[3] = Table 51, Yap1 mRNA remaining as percent of untreated control (UT), SNU-449 cells, single dose
[4] = Table 46, Yap1 mRNA as percent of untreated control, SNU-449 cells, single dose
[5] = Table 52, Yap1 mRNA, modified oligonucleotides targeting SEQ ID NO: 1 and 2
[6] = Table 43 experiment, SNU-449 cells, 10,000 cells per well, free uptake, 2,000 nM, approximately 48 hours, RTS36584, Yap1 mRNA normalized to RIBOGREEN, relative to untreated control cells
[7] = Table 50, Yap1 mRNA remaining as percent of untreated control (UT), SNU-449 cells, single dose
[8] = Table 39, SNU-449 cells, 10,000 cells per well, free uptake, 2,000 nM oligonucleotide, approx. 48 hours, RTS36584, normalized to RIBOGREEN, Yap1 mRNA relative to untreated control
[9] = Table 45, Yap1 mRNA as percent of untreated control, SNU-449 cells, single dose
[10] = Table 48, Yap1 mRNA level relative to untreated control, modified oligonucleotides targeting SEQ ID NO.: 1 and 2
[11] = Table 44 experiment, SNU-449 cells, 10,000 cells per well, free uptake, 2,000 nM, approximately 48 hours, RTS36584, Yap1 mRNA normalized to RIBOGREEN, relative to untreated control cells

## 1198571 (antisense kA*kG*k[5mC]*dA*d[5mC]*dT*dT*dT*dT*dA*d[5mC]*dA*kT*kT*kA*eG) [Compound 1198571]
[1]
  YAP1 (% UT): 32 % UT

## 1198766 (kT*e[5mC]*kA*dG*dA*dT*dT*dT*dA*dG*dG*dA*eT*eG*k[5mC]*kA; antisense) [Compound 1198766]
[2]
  YAP1 (% UTC): 19 % UTC

## 1198703 (k[5mC]*kT*dT*dT*dA*dA*dA*dG*dT*dG*dT*dA*kT*eG*kT*e[5mC]; antisense) [Compound 1198703]
Table 42 (separate experiment), SNU-449 cells, 10,000 cells per well, free uptake, 2,000 nM modified oligonucleotide, approximately 48 hours, RTS36584, normalized to RIBOGREEN, Yap1 mRNA relative to untreated control cells
  YAP1 (% UTC): 42 % UTC

## 1197265 (kT*kA*kA*dT*mA*dT*dT*dG*d[5mC]*dA*dA*dT*d[5mC]*kT*kG*kT) [Compound 1197265]
[3]
  YAP1 (% UT): 103 % UT

## 1198839 (k[5mC]*kT*dT*dT*dG*dG*dA*dA*dG*dA*dT*k[5mC]*eT*kG*eA*kA; antisense) [Compound 1198839]
[4]
  YAP1 (% UT): 36 % UT

## 1200831 (kT*kT*kT*dA*dG*mG*dA*dT*dG*d[5mC]*dA*dT*dG*kG*kT*kT; antisense) [Compound 1200831]
[5]
  YAP1 (% UT): 42 % UT

## 1198250 (k[5mC]*kT*dT*dA*dT*dA*dT*dG*dG*dT*dT*eT*eT*eG*kT*kG; antisense) [Compound 1198250]
[6]
  YAP1 (% UTC): 50 % UTC

## 1197241 (antisense kA*k[5mC]*kT*dG*mA*dG*dG*dT*dA*dT*dA*dA*d[5mC]*kT*kG*kG) [Compound 1197241]
[3]
  YAP1 (% UT): 19 % UT

## 1200784 (kT*kG*kT*d[5mC]*dT*mC*dA*dT*dG*d[5mC]*d[5mC]*dT*dT*kA*kT*kA; antisense) [Compound 1200784]
[3]
  YAP1 (% UT): 19 % UT

## 1197234 (antisense kT*kT*kA*dG*mA*dG*dT*dA*dT*dG*dT*dG*dG*k[5mC]*kA*kA) [Compound 1197234]
[7]
  YAP1 (% UT): 24 % UT

## 1198275 (kT*kA*dA*dG*dG*dT*dT*dT*d[5mC]*d[5mC]*d[5mC]*eA*eG*eA*kT*kT; antisense) [Compound 1198275]
[6]
  YAP1 (% UTC): 52 % UTC

## 1095397 (antisense kT*dG*dA*dG*dG*dT*dA*dT*dA*dA*d[5mC]*kT*eG*kG*eG*k[5mC]) [Compound 1095397]
[8]
  YAP1 (% UTC): 53 % UTC

## 1198687 (antisense kA*kT*dT*dG*d[5mC]*dA*dA*dT*d[5mC]*dT*dG*dT*k[5mC]*eT*kG*eA) [Compound 1198687]
Table 41, SNU-449 cells, 10,000 cells per well, free uptake, 2,000 nM modified oligonucleotide, approximately 48 hours, RTS36584, normalized to RIBOGREEN, Yap1 mRNA relative to untreated control cells
  YAP1 (% UTC): 55 % UTC

## 1198820 (kT*kA*dT*dA*dT*dT*dA*dG*dA*dG*dT*kA*eT*kG*eT*kG; antisense) [Compound 1198820]
[4]
  YAP1 (% UT): 62 % UT

## 1198479 (antisense kT*kT*dA*d[5mC]*dA*dT*dT*dA*dG*dG*dA*eA*k[5mC]*eA*kA*eG) [Compound 1198479]
[6]
  YAP1 (% UTC): 65 % UTC

## 1198964 (kT*kT*dT*dA*dA*dA*dG*dT*dG*dT*dA*kT*dG*kT*d[5mC]*kA; antisense) [Compound 1198964]
[9]
  YAP1 (% UTC): 59 % UTC

## 1198575 (antisense kT*kT*kG*dG*dA*dA*dG*dA*dT*d[5mC]*dT*dG*kA*kA*kA*e[5mC]) [Compound 1198575]
[1]
  YAP1 (% UT): 94 % UT

## 1197287 (kT*kA*kT*dA*mU*dT*dA*dG*dA*dG*dT*dA*dT*kG*kT*kG) [Compound 1197287]
[7]
  YAP1 (% UT): 108 % UT

## 1198613 (antisense kA*kA*kA*dG*dT*dG*dT*dA*dT*dG*dT*d[5mC]*kA*kG*kA*eA) [Compound 1198613]
[7]
  YAP1 (% UT): 3 % UT

## 1197222 (antisense kA*kA*kG*dT*dA*dA*dG*dG*dT*dT*dT*d[5mC]*d[5mC]*k[5mC]*kA*kG) [Compound 1197222]
Yap1 mRNA, percent of untreated control, modified oligonucleotides targeting SEQ ID NO: 1 and 2, Table 47
  YAP1 (% UT): 40 % UT

## 1200842 (k[5mC]*kT*k[5mC]*dT*dT*mA*dT*dA*dT*dG*dG*dT*dT*kT*kT*kG; antisense) [Compound 1200842]
[5]
  YAP1 (% UT): 168 % UT

## 1198619 (kT*kA*kA*dG*dG*dT*dT*dT*d[5mC]*d[5mC]*d[5mC]*dA*kG*kA*kT*eT) [Compound 1198619]
[7]
  YAP1 (% UT): 53 % UT

## 1197219 (antisense kA*kA*k[5mC]*dT*dT*dT*dA*dA*dA*dG*dT*dG*dT*kA*kT*kG) [Compound 1197219]
[10]
  YAP1 (% UT): 71 % UT

## 1198403 (kT*dT*dG*dG*dA*dA*dG*dA*dT*d[5mC]*dT*kG*eA*kA*eA*k[5mC]) [Compound 1198403]
[8]
  YAP1 (% UTC): 54 % UTC

## 1200799 (kA*kT*kA*dT*dT*mA*dG*dA*dG*dT*dA*dT*dG*kT*kG*kG; antisense) [Compound 1200799]
[3]
  YAP1 (% UT): 27 % UT

## 1198612 (antisense kA*kA*kG*dT*dG*dT*dA*dT*dG*dT*d[5mC]*dA*kG*kA*kA*eG) [Compound 1198612]
[7]
  YAP1 (% UT): 5 % UT

## 1200808 (kA*k[5mC]*kT*dG*dA*mG*dG*dT*dA*dT*dA*dA*d[5mC]*kT*kG*kG; antisense) [Compound 1200808]
[5]
  YAP1 (% UT): 45 % UT

## 1198491 (antisense k[5mC]*kT*dT*dT*dG*dG*dA*dA*dG*dA*dT*e[5mC]*kT*eG*kA*eA) [Compound 1198491]
[11]
  YAP1 (% UTC): 22 % UTC

## 1198830 (kA*k[5mC]*dT*dT*dT*dT*dA*d[5mC]*dA*dT*dT*kA*eG*kG*eA*kA) [Compound 1198830]
[4]
  YAP1 (% UT): 37 % UT

## 1197293 (k[5mC]*kA*k[5mC]*dT*mU*dT*dT*dA*d[5mC]*dA*dT*dT*dA*kG*kG*kA; antisense) [Compound 1197293]
[7]
  YAP1 (% UT): 94 % UT

## 1198917 (k[5mC]*kA*d[5mC]*dT*dT*dT*dT*dA*d[5mC]*dA*dT*kT*dA*kG*dG*kA; antisense) [Compound 1198917]
[9]
  YAP1 (% UTC): 21 % UTC

## 1198465 (antisense kA*kG*dT*dA*dT*dG*dT*dG*dG*d[5mC]*dA*eA*kT*eA*kA*eT) [Compound 1198465]
[6]
  YAP1 (% UTC): 68 % UTC

## 1198332 (kT*k[5mC]*kA*dG*dA*dT*dT*dT*dA*dG*dG*dA*kT*eG*k[5mC]*eA; antisense) [Compound 1198332]
[10]
  YAP1 (% UT): 58 % UT

## 1198901 (kT*kA*dG*dA*dG*dT*dA*dT*dG*dT*dG*kG*d[5mC]*kA*dA*kT; antisense) [Compound 1198901]
[11]
  YAP1 (% UTC): 28 % UTC

## 1198418 (kT*d[5mC]*dA*dG*dA*dT*dT*dT*dA*dG*dG*kA*eT*kG*e[5mC]*kA; antisense) [Compound 1198418]
[8]
  YAP1 (% UTC): 67 % UTC

## 1198729 (kA*eT*kA*dT*dT*dA*dG*dA*dG*dT*dA*dT*eG*eT*kG*kG; antisense) [Compound 1198729]
[2]
  YAP1 (% UTC): 21 % UTC

## 1198603 (antisense kA*kA*kT*dA*dT*dT*dG*d[5mC]*dA*dA*dT*d[5mC]*kT*kG*kT*e[5mC]) [Compound 1198603]
[7]
  YAP1 (% UT): 51 % UT

## 1198460 (antisense kG*kA*dA*dA*dT*dT*dG*dT*d[5mC]*dT*d[5mC]*eA*kT*eG*k[5mC]*e[5mC]) [Compound 1198460]
[6]
  YAP1 (% UTC): 17 % UTC

## 1198539 (antisense kG*kA*d[5mC]*dT*dA*dA*dG*dT*dA*dA*dG*eG*kT*eT*kT*e[5mC]) [Compound 1198539]
[11]
  YAP1 (% UTC): 54 % UTC
